One series deals with CYP3A4 (Homo sapiens (Human), UniProt P08684). Description: In vitro CYP3A4 inhibition assay (P450-GLO Assay kit, Promega). The source says: The metabolism of retinoic acid and vitamin D in the skin is incompletely understood, but there is evidence for the involvement of CYP26A1, CYP3A4 and CYP2C8 in catalyzing the 4-hydroxylation of all-trans RA to 4-hydroxy-RA. It is believed, without being limited by theory, that CYP3A4 may be particularly important for ATRA metabolism in the skin. This is because CYP3A4 is expressed in skin, involved in RA metabolism, a CYP with one of the broadest substrate specificities of all of the known CYPs and available as a human recombinant protein in a commercial kit. Thus, a commercially available CYP3A4 assay was used as a surrogate to predict RAMBA potential in the skin.
The commercially available P450-GLO™ Assay kit (Promega Corporation, Madison Wis.) was used to screen various compounds for potential CYP activity, specifically CYP3A4A inhibition activity. CYP3A4A is thought to be among the primary CYP isoforms responsible for retinoic acid metabolism in the skin.
A commercially available P450-GLO™ Assay kit (Promega Corporation, Madison Wis.) is used to screen various compounds for CYP3A4A inhibition activity. CYP3A4A is thought to be one of the primary CYP isoforms responsible for retinoic acid metabolism in the skin.

In series [1] the test system is ATRA 4-hydroxylase (CYP) activity. As to the kind of experiment: in vitro. The following applies: pig, pH 7.4. The text has this: (§1) Cytochrome P450 is a large and diverse group of enzymes that catalyze the oxidation of organic substances. […] Applicant evaluated the potential RAMBA activity of several azoles using pig liver microsomes, a rich source of CYP activity, comprising many different CYP 450 isoforms. […] As understanding in this area has progressed, a more specific CYP inhibition assay can be used to provide better predictivity of activity in human skin. Nevertheless, this assay may still be used as a general predictor of overall CYP activity.
(§2) All procedures were carried out under minimal light in order to prevent degradation of the retinoid samples.
(§3) Microsomal preparation: One lobe of fresh pig liver is obtained (e.g., at about the time of slaughter from a food-processing company) and immediately placed in ice cold 15 mM KH2PO4/250 mM sucrose (pH 7.4) and kept on ice during transportation. A 10 g sample of liver is minced and homogenized in 30 mL of homogenization buffer (15 mM KH2PO4/250 mM sucrose) using a Tekmar homoginizer or equivalent by pulsing 3 times with 20 second pulses. […] The remaining pig liver may be stored at −80° C. The homogenates from the 8 samples are pooled and centrifuged at 13,000×g for 20 minutes at 4° C. to remove crude debris. The supernatant is further centrifuged at 100,000×g for 70 minutes at 4° C. The microsomal pellets are re-suspended into 50 mL of 150 mM KH2PO4/1 mM DTT (pH 7.4) and 1 mL aliquots are stored at −80° C.
(§4) 100-150 μg of pig liver microsomal protein in 150 mM KH2PO4 is incubated at 37° C. in the presence of radiolabeled ATRA and 5 mM NADPH for 90 min. The final ATRA concentration is 1 μM, as a combination of [20-Methyl-^3H]ATRA and unlabeled ATRA. Initially, radiolabeled ATRA may be used to assist in validating the method. Once retention times of retinoid metabolites are identified, unlabeled ATRA is used for screening. Compounds tested as possible competitive substrates are added to the assay 10 min prior to the addition of ATRA. Ethanol, containing 0.1% butylated hydroxytoluene (BHT) as an antioxidant, is used to stop the reactions. For recovery of ATRA the pH of reactions are adjusted to 3.0 before extraction with 0.1N HCl. Retinoids are extracted from the protein aqueous phase with 4 mL hexane, 1 ml 100 μg/ml BHT in water (pH 3). An additional 4 mL of hexane (pH 3) is used for a second extraction. The organic extractions are pooled, evaporated to dryness using a speed vac, and resuspended in 62.5 μl acetonitrile containing 1 mg/ml BHT. Samples are analyzed by HPLC.HPLC separation of retinoids. […] Mobile phases used for gradient elution of retinoids are those of Duell et al., J. Clin. Invest. […] Mobile phase A is acetonitrile:0.02 M ammonium acetate:acetic acid (1:1:0.01) and mobile phase B is acetonitrile:0.2M ammonium acetate:acetic acid (19:1:0.008). At the start of the HPLC run, solvent A is run 100% followed by a linear gradient to solvent B at 3 minutes, a shallow gradient to 81% solvent B at 38 minutes, and 100% solvent B at 40 minutes. […] Effluent from the HPLC column flows directly into a flow-through scintillation spectrometer […]. Because of the sensitivity limitations of the β-RAM spectrometer, it is not used to quantitate peak areas but rather to confirm ATRA and ATRA 4-hydroxylase activity. Calculated peaks areas (using Millenium software—Waters Corp.) of ATRA and ATRA metabolites are used to quantify relative activity levels.

Series [2] deals with ATRA 4-hydroxylase (CYP) activity of pig liver microsomes. As to the kind of experiment: In vitro ATRA 4-hydroxylase activity assay to determine CYP inhibition (pig liver microsomes). The settings on record: pig liver microsomes.
Source text: as §1, §2, §3, §4
In general terms: Liver microsomes are a subcellular fraction often used to study metabolism.

The next series has as its system facial skin. Description: Method of treatment: topical application to the face, appearance of aging skin. Format: in vivo, human. The following applies: 0.55% by weight in a vehicle, entire face, one to two times a day for 8 weeks. The source says:
A test subject topically applies a composition comprising 0.55% 1-phenylimidazole, by weight in a vehicle, to the entire face one to two times a day for 8 weeks.

The mark [3] stands for this setting: human recombinant CYP3A4, P450-GLO kit.
[4] abbreviates: read-out: hit / no hit (CYP3A4 inhibition), human recombinant CYP3A4, P450-GLO kit.

Molecules are shown by their SMILES.

Sequence of CYP3A4 (P08684 whole entry): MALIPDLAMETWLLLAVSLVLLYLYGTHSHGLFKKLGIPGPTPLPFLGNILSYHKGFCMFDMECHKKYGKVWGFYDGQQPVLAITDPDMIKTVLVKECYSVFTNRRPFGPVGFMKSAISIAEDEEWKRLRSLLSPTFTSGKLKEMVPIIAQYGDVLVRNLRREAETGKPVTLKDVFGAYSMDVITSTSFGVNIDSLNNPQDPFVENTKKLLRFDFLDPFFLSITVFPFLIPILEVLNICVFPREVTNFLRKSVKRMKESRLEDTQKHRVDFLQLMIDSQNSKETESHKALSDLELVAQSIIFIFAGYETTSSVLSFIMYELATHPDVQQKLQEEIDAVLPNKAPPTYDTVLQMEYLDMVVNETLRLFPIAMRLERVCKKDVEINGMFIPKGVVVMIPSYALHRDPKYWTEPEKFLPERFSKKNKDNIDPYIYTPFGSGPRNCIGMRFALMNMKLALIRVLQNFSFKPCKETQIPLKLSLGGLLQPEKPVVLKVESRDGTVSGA

Consider `N=C(N)c1ccc(OCCCCCCOc2ccc(C(=N)N)cc2)cc1` [Hexamidine diisethionate], for which the IC50 on CYP3A4 (setting [3]) and on CYP3A4 (setting [4]) was > 10 µM throughout.
Turning to `CC(=O)c1ccc(-n2ccnc2)cc1` [4′-(Imidazol-1 yl) acetophenome], the IC50 on CYP3A4 was < 10 µM.
Regarding `c1ccc(Cn2ccnc2)cc1` [1-benzylimidazole], the IC50 in series [1] turned out to be 77.5 µM.
As for `CCCCNC(=O)n1c(NC(=O)OC)nc2ccccc21` [Benomyl], the IC50 at CYP3A4 (setting [3]) and on CYP3A4 (setting [4]) was > 10 µM in each case.
Consider `C=Cn1ccnc1` [1-Vinylimidazole], for which the IC50 on CYP3A4 (setting [3]) and on CYP3A4 (setting [4]) was > 10 µM in each case.
For `NCCCn1ccnc1` [N-(3-Aminopropyl) imidazole], the IC50 on CYP3A4 (human, recombinant enzyme) was > 10 µM.
As to `c1ccc(-c2ncc[nH]2)cc1` [2-phenylimidazole, 2-Phenylimidazole], in series [2], the “CYP inhibitory activity (in words)” value was “lacked any significant inhibitory activity”. The IC50 was > 500 µM in series [1], > 10 µM at CYP3A4 (setting [3]) and > 10 µM on CYP3A4 (setting [4]). Further, the “inhibitory activity in the CYP3A4 assay (in words)” value on CYP3A4 was “did not”.
Take `CCc1ncc[nH]1` [2-Ethylimidazole]: at CYP3A4 (human, recombinant enzyme), the IC50 was > 10 µM.
Turning to `O=C(n1ccnc1)n1ccnc1` [1′-1-Carbonylimidazole], the IC50 on CYP3A4 (setting [3]) and at CYP3A4 (setting [4]) was > 10 µM each time.
`CC(=O)n1ccnc1` [1-Acetylimidazole]: the IC50 on CYP3A4 (setting [3]) and at CYP3A4 (setting [4]) was > 10 µM each time.
In the case of `N[C@@H](Cc1c[nH]cn1)C(=O)O` [Histidine], the IC50 at CYP3A4 (human, recombinant enzyme) is > 10 µM.
The same measure, in the same setting: next, `CCCCc1nc(C=O)c(Cl)[nH]1` [2-Butyl-4-chloro-5-formylimidazole]: > 10 µM.
On to `c1ccc(-c2nc[nH]c2-c2ccccc2)cc1` [4,5-diphenylimidazole], for which the IC50 at 90 min in series [1] is 100 µM.
With `CC(C)(C(=O)c1cccnc1)c1cccnc1` [Metyrapone], the IC50 at CYP3A4 was < 10 µM.
Same read-out and setting: next, `CCc1cccc(C)c1N(C(=O)CCl)C(C)COC` (stereo not shown) [Metolachlor]: > 10 µM.
`Cn1ccnc1` [1-Methylimidazole]: the IC50 at CYP3A4 (human, recombinant enzyme) was > 10 µM.
`Nc1nc[nH]n1` [Amitrol]: the IC50 on CYP3A4 (human, recombinant enzyme) was > 10 µM.
In the case of `c1ccc(-n2ccnc2)cc1` [1-phenylimidazole], the “appearance of aging facial skin after treatment” value in the series with facial skin was “facial skin feels and appears less aged”. For the same compound, in series [2], the “CYP inhibitory activity (in words)” value is listed as “elicit CYP inhibitory activity”. Also, the results for the IC50 (in series [1]; against CYP3A4; at CYP3A4 (setting [3])) were 52.5 µM, < 10 µM and 1 µM, respectively. Moreover, the “inhibitory activity in the CYP3A4 assay (in words)” value against CYP3A4 was “showed inhibitory activity”.
On to `Cc1ccc2cc3c(ccc4ccccc43)c3c2c1CC3` [Methyl- cholanthrene], for which, at CYP3A4 (setting [3]), the IC50 is > 10 µM and the “hit / no hit (CYP3A4 inhibition)” value was “Near Hit”.
As to `Clc1ccccc1-c1nc2ccccc2[nH]1` [2-(2-Chlorophenyl) benzimidazole], the IC50 at CYP3A4 (setting [3]) and on CYP3A4 (setting [4]) was > 10 µM throughout.
Turning to `Cc1nccn1Cc1ccccc1` [1-benzyl-2-methylimidazole], the IC50 at 90 min in series [1] is 308 µM.
In the case of `Cc1ncc[nH]1` [2-Methylimidazole], the IC50 on CYP3A4 (setting [3]) and on CYP3A4 (setting [4]) was > 10 µM each time.
As for `CCc1nc(C)c[nH]1` [2-Ethyl-4-methyl-imidazole], the IC50 on CYP3A4 (setting [3]) and on CYP3A4 (setting [4]) was > 10 µM each time.
As to `CC(NC(=O)[C@@H](N)CCC(=O)O)c1ncc[nH]1` (stereo partly shown) [Glutamylamidoethyl imidazole], the IC50 at CYP3A4 (human, recombinant enzyme) is > 10 µM.
For `Cc1cccc(C)c1N(Cn1cccn1)C(=O)CCl` [Metazachlor], the IC50 at CYP3A4 (setting [3]) and at CYP3A4 (setting [4]) was > 10 µM throughout.
As for `Clc1ncnc2[nH]cnc12` [6-Chloropurine], the IC50 on CYP3A4 (human, recombinant enzyme) was > 10 µM.
Still for that read-out and setting: next, `O=C(/C=C/C=C/c1ccc2c(c1)OCO2)N1CCCCC1` [Piperine]: < 10 µM.
Turning to `c1ccc2[nH]cnc2c1` [Benzimidazole], the IC50 at CYP3A4 (setting [3]) and on CYP3A4 (setting [4]) was > 10 µM each time.
In the case of `Cn1c(=O)c2[nH]cnc2n(C)c1=O` [Theophylline], the IC50 at CYP3A4 (setting [4]) was > 10 µM.
Consider `c1ccc(-c2n[nH]cc2-c2ccnc3ccccc23)nc1` [LY-364947], for which the IC50 at CYP3A4 (human, recombinant enzyme) was > 10 µM.
Regarding `CC(=O)/C=C/C1=C(C)CCCC1(C)C` [β-Ionone], the IC50 on CYP3A4 (human, recombinant enzyme) is > 10 µM.
Consider `CC1=N[C@H](C(=O)O)CCN1` [Ectoine], for which the IC50 on CYP3A4 (human, recombinant enzyme) was > 10 µM.
`c1coc(-c2nc3ccccc3[nH]2)c1` [Fuberidazole]: the IC50 on CYP3A4 (setting [3]) and at CYP3A4 (setting [4]) was > 10 µM throughout.
Turning to `N[C@@H](Cc1c[nH]c2ccccc12)C(=O)O` [L-Tryptophan], the IC50 on CYP3A4 (human, recombinant enzyme) was > 10 µM.

These data come from patent US9138393B2, “Cosmetic compositions containing substituted azole and methods for improving the appearance of aging skin” (The Proctor & Gamble Company, priority 2013, dated 2015).
